We go through 16 compounds from publication PMC10808981, “Synthesis and structure–activity relationships of aryl fluorosulfate-based inhibitors as novel antitubercular agents” (Bioorganic & Medicinal Chemistry Letters, 2024).

The term Cmax denotes the peak of the concentration-time curve. Broadly, the bioavailability is dose-corrected exposure relative to a reference, in per cent. The low end stands for poor availability, the high end for good availability. In general, fraction unbound refers to the share of the substance not bound to proteins or other matrix. A low value points to little free substance. As usually defined, the MIC is the lowest concentration found to suppress growth. A low value points to a more susceptible organism. For orientation: Vd means a proportionality between amount in the body and measured concentration, not a real space. A word on the Tmax: it is the time from dosing to the highest level. In general, IC90 refers to the point of the concentration-response curve where the effect stands at 90%. One may read the pIC50 as the IC50 on a negative log10 scale, so that one unit is a factor of ten.

One series in a line: in vivo. Conditions: mouse.
Series [1] can be described thus: in vitro. To be noted: mouse, po, 20 mg/kg.
A further series relates to Mtb H37Rv. As to the kind of experiment: MIC determination in Mtb H37Rv, Microdilution Alamar Blue Assay (MABA). The class given is cell-based, Mycobacterium tuberculosis. (In general: In broth dilution the organism is exposed to a series of concentrations in liquid medium.)
A further series concerns HepG2 cells. To be noted: for CC50: read-out: HepG2 CC50, HepG2, 3 days.
Series [2] can be described thus: in vitro. Conditions: human.
For a further series, the system named is HEK293T cells. As to the kind of experiment: HEK293T cytotoxicity assay (Cell Titer-Glo). The class given is cell-based. Conditions: for CC50: HEK293T, 3 days. As for the experimental part:
(§1) HEK293T (ATCC) were grown in DMEM (Gibco Cat # 11965-092) supplemented with 10% heat-inactivated FBS, Pen Strep (Gibco) 1X in a 5% CO2 humidified atmosphere at 37◦C. Cells were washed once with DPBS 1X (Gibco), incubated for less than 5 minutes at room temperature in TrypLE solution (Gibco), washed once in propagation medium to remove trypsin, and counted with Trypan Blue. 5 µL of cell suspension ([…]) was dispensed into 1536-well plates containing serial 3-fold drug dilution ranging from 40 µM to 2 nM and incubated for 3 days in a 5% CO2 humidified atmosphere at 37 ◦C. Cell Titer-Glo® Luminescent Cell Viability Assay (Promega) reagent was diluted 1:1 with water and then 2 µL were added to plates. Luminescence was measured in a PHERAStar plate reader (BMG Labtech) and data normalized to negative control (DMSO) minus inhibitor (Puromycin 10 µM). Dose-response curves were fit using the Smart Fit function in Genedata Screener Analyzer (v16.0.8).
On the technique in general: In ATP-based viability assays light output follows the ATP content of the culture.

Series [3] in a line: HEK293T cytotoxicity assay (Cell Titer-Glo). The class given is cell-based. Conditions: human, HEK293T cells; HEK293T, 3 days. As for the experimental part:
as §1

Series [4] in a line: in vitro. Conditions: mouse, plasma.
The conditions of series [5]: mouse.
A further series deals with Mtb CDC1551. As to the kind of experiment: Anti-TB activity against Mtb CDC1551 (IC90), Alamar Blue. Type of series: cell-based. Conditions: Mycobacterium tuberculosis. For orientation: Alamar Blue is a resazurin reagent that responds to reducing activity.
Another series has as its system Mtb H37Ra. As to the kind of experiment: microbe, parasite or virus in culture. The class given is cell-based. Conditions: Mycobacterium tuberculosis, 168 h, read-out: H37Ra IC50.
[6] abbreviates: Mycobacterium tuberculosis, H37RV, 168 h, Mtb H37Rv, MABA, 7 days.

pIC50: −log10 of the molar value. Read-outs that look alike come from different tables or passages of the source. A value given as a limit tells only on which side of the number the result lay.

In “in vivo” (iv, 3 mg/kg), `CS(=O)(=O)Nc1ncn(-c2cc(F)c(COc3ccc(OS(=O)(=O)F)cc3)c(F)c2)n1` [Compound 21b, 4-((2,6-difluoro-4-(3-(methylsulfonamido)-1H-1,2,4-triazol-1-yl)benzyl)oxy)phenyl sulfurofluoridate] registered a Cmax of 3310 ng/mL. Besides, the bioavailability in “in vivo” (po, 20 mg/kg) worked out at 99.4%. Further, the fraction unbound in “in vitro [1]” was found to be 0.016. Also, the “H37Rv MIC” value in the series with Mtb H37Rv (Mtb H37Rv, MABA, 7 days) was determined as 0.06 ± 0.019 µM. Also, the minimum inhibitory concentration (MIC) in the series with Mtb H37Rv (Mycobacterium tuberculosis, H37RV) was found to be 0.028 µg/mL. In the series with Mtb H37Rv (setting [6]), this compound returned a minimum inhibitory concentration (MIC) of 0.06 µM. The “cytotoxicity against HepG2 (in words)” value with HepG2 cells is given as “no cytotoxicity”. The CC50 in “in vitro [2]” is more than 40 µM. Further, the “cytotoxicity against HEK293T (in words)” value in the series on HEK293T cells is given as “no cytotoxicity”. Besides, the CC50 at 3 days in [3] is more than 40 µM. This compound also gave a fraction unbound in “in vitro [4]” of 0.008. The “coverage of plasma and lung levels above the H37Rv MIC” value in series [5] (20 mg/kg PO, total levels) is reported as approximately 24 h. Besides, in series [5] (20 mg/kg PO, unbound levels), the “unbound levels of plasma and lung coverage over MIC” value is approximately 8 h. In addition, in series [5] (IV 3 mg/kg), the AUC0-24 is on record as 7,085 hr*ng/mL, the Cl was determined as 7.05 mL/min/kg, the T1/2 is 3.93 h and the distribution volume (Vd) turned out to be 2.38 L/kg. For the same compound, in [5] (PO 20 mg/kg), the AUC0-24 was 47,615 hr*ng/mL, the T1/2 turned out to be 2.57 h and the Tmax is 1.00 h. Also, in series [5] (PO 20 mg/kg, lung, 8 h), the “Clung at 8 h” value is 1,596 ng/mL. For the same compound, the “Clung at 24 h” value in [5] (PO 20 mg/kg, lung, 24 h) is 14.1 ng/mL. Further, in series [5] (PO 20 mg/kg, plasma, 8 h), the “Cplasma at 8 h” value was 2,120 ng/mL. Further, the “Cplasma at 24 h” value in series [5] (PO 20 mg/kg, plasma, 24 h) worked out at 22.6 ng/mL. Moreover, in series [5] (in vivo, po, 20 mg/kg), the highest concentration (Cmax) is 9,290 ng/mL.
In the series on Mtb H37Rv (Mtb H37Rv, MABA, 7 days), “4-((2,6-difluoro-4-(3-isopropyl-1H-1,2,4-triazol-1-yl)benzyl)oxy)phenyl sulfurofluoridate [Compound 20 h]” showed a minimal inhibitory concentration (MIC) of 0.31 µM. The CC50 with HepG2 cells and in the series with HEK293T cells was more than 40 µM each time.
For `O=S(=O)(F)Oc1ccc(OCc2ccc(-n3cncn3)cc2)cc1Cl` [Compound 3c, 4-((4-(1H-1,2,4-triazol-1-yl)benzyl)oxy)-2-chlorophenyl sulfurofluoridate], the “cytotoxicity against HepG2 (in words)” value in the series with HepG2 cells is recorded as “exhibited cytotoxicity”. For the same compound, it took 4.64 µM to reach the 90% level in the series with Mtb CDC1551 (IC90). Besides, the values for the CC50 at 72 h (in “in vitro [2]”; in [3]) were 5.8 µM and 3.7 µM, respectively. Further, in the series on HEK293T cells, the “cytotoxicity against HEK293T (in words)” value is “exhibited cytotoxicity”.
`COc1cc(OCc2ccc(-n3cncn3)cc2)ccc1OS(=O)(=O)F` [Compound 3b, 4-((4-(1H-1,2,4-triazol-1-yl)benzyl)oxy)-2-methoxyphenyl sulfurofluoridate]: the “anti-TB activity against Mtb (in words)” value with Mtb H37Rv is “not active”. This compound showed an MIC with Mtb H37Rv (setting [6]) of 25 µM. Further, the IC90 in the series with Mtb CDC1551 is more than 30 µM. The same compound gave a CC50 at 72 h in “in vitro [2]” of 13.3 µM. In addition, the CC50 at 3 days in series [3] was more than 40 µM.
On to “4-((2,6-difluoro-4-(1H-1,2,3-triazol-1-yl)benzyl)oxy)phenyl sulfurofluoridate [Compound 3 m]”, for which, in the series on Mtb H37Rv (Mtb H37Rv, MABA, 7 days), the minimal inhibitory concentration (MIC) is given as 0.22 µM. The CC50 in the series with HepG2 cells and with HEK293T cells was more than 40 µM in each case.
Take `O=S(=O)(F)Oc1ccc(OCc2ccc(-n3cncn3)cc2F)cc1` [Compound 3d, 4-((2-fluoro-4-(1H-1,2,4-triazol-1-yl)benzyl)oxy)phenyl sulfurofluoridate]: 0.6 µM was the least that counted as inhibitory against Mtb H37Rv (setting [6]) (MIC). The IC90 with Mtb CDC1551 worked out at 1.3 µM. In addition, the CC50 at 72 h in “in vitro [2]” stood at 12.5 µM; in series [3], 22.7 µM.
Consider `CC(=O)Nc1ccc(COc2ccc(OS(=O)(=O)F)cc2)cc1` [Compound 2], for which the pIC50 with Mtb H37Ra is 5.89.
As to `O=S(=O)(F)Oc1ccc(OCc2cc(F)c(-n3cncn3)cc2F)cc1` [Compound 3 h, 4-((2,5-difluoro-4-(1H-1,2,4-triazol-1-yl)benzyl)oxy)phenyl sulfurofluoridate], 1.25 µM was the least that counted as inhibitory in the series with Mtb H37Rv (setting [6]) (MIC). Further, the CC50 at 72 h in “in vitro [2]” was 29.5 µM; in series [3], 21.6 µM.
`O=S(=O)(F)Oc1ccc(OCc2c(F)cc(-n3cnnn3)cc2F)cc1` [Compound 19 g, 4-((2,6-difluoro-4-(1H-tetrazol-1-yl)benzyl)oxy)phenyl sulfurofluoridate] gave an MIC in the series on Mtb H37Rv (setting [6]) of 0.45 µM. Further, the CC50 at 72 h in “in vitro [2]” stood at 12.1 µM; in series [3], 13.2 µM.
With `COc1ncn(-c2cc(F)c(COc3ccc(OS(=O)(=O)F)cc3)c(F)c2)n1` [Compound 20f, 4-((2,6-difluoro-4-(3-methoxy-1H-1,2,4-triazol-1-yl)benzyl)oxy)phenyl sulfurofluoridate], in the series on Mtb H37Rv (setting [6]), inhibition of growth (MIC) required 0.6 µM. For the same compound, the CC50 in the series “in vitro [2]” was more than 40 µM. In series [3], this compound gave a CC50 at 3 days of more than 40 µM.
`O=S(=O)(F)Oc1ccc(OCc2c(F)cc(-n3nccn3)cc2F)cc1` [Compound 3 k, 4-((2,6-difluoro-4-(2H-1,2,3-triazol-2-yl)benzyl)oxy)phenyl sulfurofluoridate] returned an MIC against Mtb H37Rv (setting [6]) of 1.23 µM. In addition, in the series “in vitro [2]”, the CC50 is more than 40 µM. For the same compound, in series [3], the CC50 at 3 days was more than 40 µM.
`O=S(=O)(F)Oc1ccc(OCc2c(F)cc(-n3ccnc3)cc2F)cc1` [Compound 19f, 4-((2,6-difluoro-4-(1H-imidazol-1-yl)benzyl)oxy)phenyl sulfurofluoridate] yielded a minimum inhibitory concentration (MIC) against Mtb H37Rv (setting [6]) of 0.37 µM. In “in vitro [2]”, this compound showed a CC50 of less than 10 µM and a CC50 at 72 h of 8.63 µM. In series [3], this compound yielded a CC50 at 72 h of 9.65 µM and a CC50 at 3 days of less than 10 µM.
As to `O=S(=O)(F)Oc1ccc(OCc2ccc(-n3cncn3)cc2)cc1` [Compound 3a, 4-((4-(1H-1,2,4-triazol-1-yl)benzyl)oxy)phenyl sulfurofluoridate], the pIC50 in the series with Mtb H37Ra is 5.82. In addition, in the series on Mtb H37Rv (setting [6]), it took 2.84 µM to inhibit growth (MIC). For the same compound, in the series on Mtb CDC1551, the concentration for an effect of 90% (IC90) was 4.71 µM. Further, the CC50 at 72 h turned out to be 19.3 µM in “in vitro [2]” and 11.6 µM in series [3].
In the case of `O=S(=O)(F)Oc1ccc(OCc2c(F)cc(-c3ccn[nH]3)cc2F)cc1` [Compound 19c, 4-((2,6-difluoro-4-(1H-pyrazol-5-yl)benzyl)oxy)phenyl sulfurofluoridate], in the series on Mtb H37Rv (setting [6]), inhibition of growth (MIC) required 0.84 µM. The CC50 at 72 h in the series “in vitro [2]” stood at 18.5 µM; in series [3], 31.7 µM.
Compound `O=S(=O)(F)Oc1ccc(OCc2c(F)cc(-n3cncn3)cc2F)cc1` [Compound 3i, 4-((2,6-difluoro-4-(1H-1,2,4-triazol-1-yl)benzyl)oxy)phenyl sulfurofluoridate] yielded an MIC with Mtb H37Rv (setting [6]) of 0.6 µM. Besides, the “selectivity index (SI)” value in the series on HepG2 cells (HepG2 cytotoxicity vs H37Rv MIC) was 9.6. This compound came in with a CC50 at 72 h in “in vitro [2]” of 5.8 µM. The compound further came in with a CC50 at 3 days in series [3] of more than 40 µM.
On to `CC(C)c1ncn(-c2cc(F)c(COc3ccc(OS(=O)(=O)F)cc3)c(F)c2)n1` [Compound 20c, 4-((2,6-difluoro-4-(3-isopropyl-1H-1,2,4-triazol-1-yl)benzyl)oxy)phenyl sulfurofluoridate], for which it took 0.6 µM to inhibit growth against Mtb H37Rv (setting [6]) (MIC). Also, the CC50 at 72 h in “in vitro [2]” was determined as 12.4 µM; in series [3], 16.7 µM.
